Reference: patent US12083101B2, “Biaryl derivatives as YAP/TAZ-TEAD protein-protein interaction inhibitors” (Novartis AG, priority 2020, dated 2024)
Where two headings read alike, the source gives them in different places.

What was measured:
[1] = molecular target: Avi-humanTEAD4 217-434 / Cy5 labeled humanYAP 60-100 (Homo sapiens (Human), UniProt Q15561); assay: TR-FRET YAP-TEAD4 in-vitro biochemical assay; assay type: binding; settings: 1 nM Avi-humanTEAD4 217-434, 20 nM Cy5-humanYAP 60-100, 1 h room temperature
Chain of Avi-humanTEAD4 217-434 / Cy5 labeled humanYAP 60-100 (Q15561 217-434): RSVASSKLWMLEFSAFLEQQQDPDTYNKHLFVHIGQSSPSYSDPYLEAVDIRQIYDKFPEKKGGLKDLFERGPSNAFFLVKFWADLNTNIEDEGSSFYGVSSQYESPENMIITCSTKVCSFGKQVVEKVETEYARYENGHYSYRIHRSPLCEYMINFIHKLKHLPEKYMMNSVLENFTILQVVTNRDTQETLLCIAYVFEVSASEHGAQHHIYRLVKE

MKN-45/Ubc-luc cells [2] = assay: Reporter gene specificity control (Ubc-luciferase), MKN-45
[3] = test system: NCI-H2052 Tet-On shYAP_2371 pLenti6 MCAT_Luc cells; assay: Proliferation assay (resazurin), NCI-H2052; assay type: cell-based; settings: 72 hours incubation
In short: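 The NCI-H2052 line carries a Tet-inducible shRNA against the YAP1 3′UTR and an MCAT luciferase reporter. The day after seeding, it received eleven 2-fold compound dilutions at 0.1% DMSO, and viability was read by resazurin fluorescence.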

[4] = test system: NCI-H2052 Tet-On shYAP_2371 pLenti6 MCAT_Luc cells (YAP-dependent transcription); assay: YAP reporter gene activity assay (MCAT-luciferase), NCI-H2052; assay type: cell-based; settings: 24 hours incubation, BrightGlo luminescence
In short: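 Luminescence was read 5 min after BrightGlo, following 24 h at 37 °C of compound exposure (eleven 2-fold dilutions, DMSO normalized to 0.1%). Cells were NCI-H2052 with a YAP-responsive MCAT-luciferase and a Tet-inducible shRNA against YAP1 3′UTR. Cell-free background was removed, values were normalized to vehicle, and IC50 was fitted with four parameters.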

MKN-45/Ubc-luc cells [5] = assay: Proliferation assay (resazurin), MKN-45; assay type: cell-based; settings: 72 hours incubation
[6] = Homo sapiens, MKN-45, 24 h, read-out: Reporter gene assay MKN-45 IC50 [μM], MKN-45/Ubc-luc cells (YAP deleted, specificity control), 24 hours incubation

IC50 [1] [nM] | IC50 (MKN-45/Ubc-luc cells [2]; read-out: Reporter gene assay MKN-45 IC50, MKN-45/Ubc-luc cells (YAP deleted, specificity control), 24 hours incubation) [µM] | GI50 [3] [nM] | IC50 [4] [nM] | GI50 (MKN-45/Ubc-luc cells [5]) [nM] | IC50 (MKN-45/Ubc-luc cells [2]; [6]) [µM] | GI50 ([3]; Homo sapiens, NCI-H2052, 72 h) [nM] | IC50 ([4]; Homo sapiens, NCI-H2052, 24 h) [nM] | GI50 (MKN-45/Ubc-luc cells [5]; Homo sapiens) [nM] | SMILES
32 | > 10 | 571 | 316 | > 10000 | – | – | – | – | NC(=O)c1ccc(OC(F)F)c(F)c1-c1c(Cl)c(F)cc2c1C[C@@](CN[C@H]1CC[C@@H](O)[C@H](F)C1)(c1ccccc1)O2 (atropisomer, axis not shown) [Example 81b, 2-((2S,4S)-5-chloro-6-fluoro-2-((((1R,3S,4S)-3-fluoro-4-hydroxycyclohexyl)amino)methyl)-2-phenyl-2,3-dihydrobenzofuran-4-yl)-4-(difluoromethoxy)-3-fluorobenzamide]
24 | – | – | – | – | > 10 | 503 | 394 | > 10000 | NC(=O)c1ccc(OC(F)F)c(F)c1-c1c(Cl)c(F)cc2c1C[C@@](CN[C@@H]1CCC[C@H](O)C1)(c1ccccc1)O2 (atropisomer, axis not shown) [Example 83, 2-((2S,4S)-5-chloro-6-fluoro-2-((((1R,3S)-3-hydroxycyclohexyl)amino)methyl)-2-phenyl-2,3-dihydrobenzofuran-4-yl)-4-(difluoromethoxy)-3-fluorobenzamide]
3 | – | – | – | – | > 10 | 129 | 119 | > 10000 | COc1ccc(C(N)=O)c(-c2c(Cl)ccc3c2[C@H](O)[C@@](CN)(c2ccccc2)O3)c1F (atropisomer, axis not shown) [Example 86, 2-((2S,3S,4S)-2-(Aminomethyl)-5-chloro-3-hydroxy-2-phenyl-2,3-dihydrobenzofuran-4-yl)-3-fluoro-4-methoxybenzamide]
7 | – | – | – | – | > 10 | 242 | 91 | > 10000 | COCCOc1ccc(C(N)=O)c(-c2c(Cl)ccc3c2[C@H](O)[C@@](CN)(c2ccccc2)O3)c1F (atropisomer, axis not shown) [Example 88, 2-((2S,3S,4S)-2-(aminomethyl)-5-chloro-3-hydroxy-2-phenyl-2,3-dihydrobenzofuran-4-yl)-3-fluoro-4-(2-methoxyethoxy)benzamide]
19 | – | – | – | – | > 10 | 1600 | 596 | > 10000 | COc1ccc(C(N)=O)c(-c2c(Cl)ccc3c2[C@H](O)[C@@](CN)(c2ccccn2)O3)c1F (atropisomer, axis not shown) [Example 89, 2-((2R,3S,4S)-2-(Aminomethyl)-5-chloro-3-hydroxy-2-(pyridin-2-yl)-2,3-dihydrobenzofuran-4-yl)-3-fluoro-4-methoxybenzamide]
22 | – | – | – | – | > 10 | 1700 | 1430 | > 10000 | COc1cccc([C@@]2(CN)Oc3ccc(Cl)c(-c4c(C(N)=O)ccc(OC(F)F)c4F)c3[C@@H]2O)n1 (atropisomer, axis not shown) [Example 90, 2-((2R,3S,4S)-2-(Aminomethyl)-5-chloro-3-hydroxy-2-(6-methoxypyridin-2-yl)-2,3-dihydrobenzofuran-4-yl)-4-(difluoromethoxy)-3-fluorobenzamide]
22 | – | – | – | – | > 10 | 1930 | 960 | > 10000 | COc1ccc(C(N)=O)c(-c2c(Cl)ccc3c2[C@H](O)[C@@](CN)(c2cccnc2OC)O3)c1F (atropisomer, axis not shown) [Example 91, 2-((2S,3S,4S)-2-(Aminomethyl)-5-chloro-3-hydroxy-2-(2-methoxypyridin-3-yl)-2,3-dihydrobenzofuran-4-yl)-3-fluoro-4-methoxybenzamide]
5 | – | – | – | – | > 10 | 188 | 84 | > 10000 | NC(=O)c1ccc(OC(F)F)c(F)c1-c1c(Cl)ccc2c1[C@H](O)[C@@](CNC1CCC1)(c1ccccc1)O2 (atropisomer, axis not shown) [Example 96, 2-((2S,3S,4S)-5-Chloro-2-((cyclobutylamino)methyl)-3-hydroxy-2-phenyl-2,3-dihydrobenzofuran-4-yl)-4-(difluoromethoxy)-3-fluorobenzamide]
4 | – | – | – | – | > 10 | 117 | 65 | > 10000 | COc1ccc(C(N)=O)c(-c2c(Cl)c(F)cc3c2[C@H](O)[C@@](CN)(c2ccccc2)O3)c1F (atropisomer, axis not shown) [Example 97, 2-((2S,3S,4S)-2-(Aminomethyl)-5-chloro-6-fluoro-3-hydroxy-2-phenyl-2,3-dihydrobenzofuran-4-yl)-3-fluoro-4-methoxybenzamide]
2 | – | – | – | – | > 10 | 26 | 23 | > 10000 | NC(=O)c1ccc(OCCO)c(F)c1-c1c(Cl)c(F)cc2c1[C@H](O)[C@@](CNC1CCC1)(c1ccccc1)O2 (atropisomer, axis not shown) [Example 99, 2-((2S,3S,4S)-5-Chloro-2-((cyclobutylamino)methyl)-6-fluoro-3-hydroxy-2-phenyl-2,3-dihydrobenzofuran-4-yl)-3-fluoro-4-(2-hydroxyethoxy)benzamide]
5 | – | – | – | – | > 10 | 172 | 108 | > 10000 | C[C@H]1c2c(ccc(Cl)c2-c2c(C(N)=O)ccc(OC(F)F)c2F)O[C@]1(CN)c1ccccc1 (atropisomer, axis not shown) [Example 103, 2-((2S,3S,4S)-2-(aminomethyl)-5-chloro-3-methyl-2-phenyl-2,3-dihydrobenzofuran-4-yl)-4-(difluoromethoxy)-3-fluorobenzamide]
< 1 | – | – | – | – | > 10 | 13 | 14 | > 10000 | COCCOc1ccc(C(N)=O)c(-c2c(Cl)c(F)cc3c2[C@H](C)[C@@](CN)(c2ccccc2)O3)c1F (atropisomer, axis not shown) [Example 106, 2-((2S,3S,4S)-2-(aminomethyl)-5-chloro-6-fluoro-3-methyl-2-phenyl-2,3-dihydrobenzofuran-4-yl)-3-fluoro-4-(2-methoxyethoxy)benzamide]
3 | – | – | – | – | > 10 | 86 | 75 | > 10000 | COc1ccc(C(N)=O)c(-c2c(Cl)c(F)cc3c2[C@H](C)[C@@](CN)(c2ccccn2)O3)c1F (atropisomer, axis not shown) [Example 109, 2-((2R,3S,4S)-2-(aminomethyl)-5-chloro-6-fluoro-3-methyl-2-(pyridin-2-yl)-2,3-dihydrobenzofuran-4-yl)-3-fluoro-4-methoxybenzamide]
1 | – | – | – | – | > 4 | 27 | 14 | > 4000 | CNC[C@]1(c2ccccc2)Oc2cc(F)c(Cl)c(-c3c(C(N)=O)ccc(OCCO)c3F)c2[C@@H]1C (atropisomer, axis not shown) [Example 110, 2-((2S,3S,4S)-5-Chloro-6-fluoro-3-methyl-2-((methylamino)methyl)-2-phenyl-2,3-dihydrobenzofuran-4-yl)-3-fluoro-4-(2-hydroxyethoxy)benzamide]
2 | – | – | – | – | > 10 | 29 | 21 | > 10000 | CNC[C@]1(c2ccccc2)Oc2cc(F)c(Cl)c(-c3c(C(=O)NC)ccc(OCCO)c3F)c2[C@@H]1C (atropisomer, axis not shown) [Example 113, 2-((2S,3S,4S)-5-Chloro-6-fluoro-3-methyl-2-((methylamino)methyl)-2-phenyl-2,3-dihydrobenzofuran-4-yl)-3-fluoro-4-(2-hydroxyethoxy)-N-methylbenzamide]
2 | – | – | – | – | > 10 | 23 | 18 | > 10000 | C[C@H](O)COc1ccc(C(N)=O)c(-c2c(Cl)c(F)cc3c2[C@H](C)[C@@](CN[C@H]2CC[C@](C)(O)CC2)(c2ccccc2)O3)c1F (atropisomer, axis not shown) [Example 114a, 2-((2S,3S,4S)-5-chloro-6-fluoro-2-((((trans)-4-hydroxy-4-methylcyclohexyl)amino)methyl)-3-methyl-2-phenyl-2,3-dihydrobenzofuran-4-yl)-3-fluoro-4-((S)-2-hydroxypropoxy)benzamide]
2 | – | – | – | – | > 10 | 34 | 23 | > 10000 | C[C@H](O)COc1ccc(C(N)=O)c(-c2c(Cl)c(F)cc3c2[C@H](C)[C@@](CN[C@H]2CC[C@@](C)(O)CC2)(c2ccccc2)O3)c1F (atropisomer, axis not shown) [Example 114b, 2-((2S,3S,4S)-5-chloro-6-fluoro-2-((((cis)-4-hydroxy-4-methylcyclohexyl)amino)methyl)-3-methyl-2-phenyl-2,3-dihydrobenzofuran-4-yl)-3-fluoro-4-((S)-2-hydroxypropoxy)benzamide]
